Measurements taken from BindingDB's records for doi:10.1073/pnas.0708281105 (Gsk, 2008).
pIC50: −log10 of the molar value.

Columns and labels:
Experiment in all cases: Receptor Tyrosine Kinase Inhibition Assay
Settings in all cases: pH 7.5; 23 °C
[1] = target: Epidermal growth factor receptor (Homo sapiens, UniProt P00533)
Description: (§1) Assays were performed in 96-well microtiter plates in reaction buffer containing biotinylated substrate, ATP/[gamma-33P]ATP, and purified kinase in the presence of test compounds. Reactions were terminated and transferred to MAPH phosphocellulose filter plates. The scintillation mixture was added to each well, and the assay was quantified by counting in a Packard Topcount (Packard Instrument Co.).

[2] = target: Receptor tyrosine-protein kinase erbB-4 (Homo sapiens, UniProt Q15303)
Receptor tyrosine-protein kinase erbB-4, sequence (Q15303 whole entry): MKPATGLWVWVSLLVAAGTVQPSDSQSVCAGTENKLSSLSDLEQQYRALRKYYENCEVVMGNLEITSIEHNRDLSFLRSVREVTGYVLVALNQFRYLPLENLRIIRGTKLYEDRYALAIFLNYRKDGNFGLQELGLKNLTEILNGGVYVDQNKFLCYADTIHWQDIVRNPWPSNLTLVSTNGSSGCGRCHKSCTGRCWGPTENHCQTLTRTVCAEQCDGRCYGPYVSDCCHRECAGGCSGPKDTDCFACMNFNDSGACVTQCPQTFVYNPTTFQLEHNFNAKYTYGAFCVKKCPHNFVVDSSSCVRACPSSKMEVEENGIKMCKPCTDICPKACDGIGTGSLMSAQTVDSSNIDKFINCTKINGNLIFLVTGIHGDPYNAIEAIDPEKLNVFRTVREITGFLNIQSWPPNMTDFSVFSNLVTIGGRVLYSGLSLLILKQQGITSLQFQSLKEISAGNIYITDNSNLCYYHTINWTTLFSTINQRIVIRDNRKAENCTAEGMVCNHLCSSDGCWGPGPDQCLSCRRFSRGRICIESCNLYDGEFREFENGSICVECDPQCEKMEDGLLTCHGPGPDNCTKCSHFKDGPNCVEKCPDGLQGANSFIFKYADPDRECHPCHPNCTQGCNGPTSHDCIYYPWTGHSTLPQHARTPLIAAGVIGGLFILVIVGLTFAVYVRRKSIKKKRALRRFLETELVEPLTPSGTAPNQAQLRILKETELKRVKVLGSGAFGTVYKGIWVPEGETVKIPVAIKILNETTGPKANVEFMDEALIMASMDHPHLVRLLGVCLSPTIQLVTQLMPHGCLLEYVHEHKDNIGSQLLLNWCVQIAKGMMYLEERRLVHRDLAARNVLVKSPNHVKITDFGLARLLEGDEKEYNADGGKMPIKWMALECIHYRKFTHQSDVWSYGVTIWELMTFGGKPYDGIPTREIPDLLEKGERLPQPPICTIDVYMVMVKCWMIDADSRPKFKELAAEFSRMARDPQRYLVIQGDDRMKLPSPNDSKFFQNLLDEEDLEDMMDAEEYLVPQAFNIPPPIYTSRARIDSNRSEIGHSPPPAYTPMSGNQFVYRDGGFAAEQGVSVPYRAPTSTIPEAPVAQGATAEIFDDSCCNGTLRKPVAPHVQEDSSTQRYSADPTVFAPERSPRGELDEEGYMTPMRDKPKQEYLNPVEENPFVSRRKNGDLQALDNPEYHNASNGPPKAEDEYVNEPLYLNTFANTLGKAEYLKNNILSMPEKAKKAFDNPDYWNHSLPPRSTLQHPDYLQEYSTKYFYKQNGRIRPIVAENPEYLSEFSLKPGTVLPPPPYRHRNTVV
Description: as §1

[3] = target: Receptor tyrosine-protein kinase erbB-2 (Homo sapiens, UniProt P04626)
Receptor tyrosine-protein kinase erbB-2, sequence (P04626 whole entry): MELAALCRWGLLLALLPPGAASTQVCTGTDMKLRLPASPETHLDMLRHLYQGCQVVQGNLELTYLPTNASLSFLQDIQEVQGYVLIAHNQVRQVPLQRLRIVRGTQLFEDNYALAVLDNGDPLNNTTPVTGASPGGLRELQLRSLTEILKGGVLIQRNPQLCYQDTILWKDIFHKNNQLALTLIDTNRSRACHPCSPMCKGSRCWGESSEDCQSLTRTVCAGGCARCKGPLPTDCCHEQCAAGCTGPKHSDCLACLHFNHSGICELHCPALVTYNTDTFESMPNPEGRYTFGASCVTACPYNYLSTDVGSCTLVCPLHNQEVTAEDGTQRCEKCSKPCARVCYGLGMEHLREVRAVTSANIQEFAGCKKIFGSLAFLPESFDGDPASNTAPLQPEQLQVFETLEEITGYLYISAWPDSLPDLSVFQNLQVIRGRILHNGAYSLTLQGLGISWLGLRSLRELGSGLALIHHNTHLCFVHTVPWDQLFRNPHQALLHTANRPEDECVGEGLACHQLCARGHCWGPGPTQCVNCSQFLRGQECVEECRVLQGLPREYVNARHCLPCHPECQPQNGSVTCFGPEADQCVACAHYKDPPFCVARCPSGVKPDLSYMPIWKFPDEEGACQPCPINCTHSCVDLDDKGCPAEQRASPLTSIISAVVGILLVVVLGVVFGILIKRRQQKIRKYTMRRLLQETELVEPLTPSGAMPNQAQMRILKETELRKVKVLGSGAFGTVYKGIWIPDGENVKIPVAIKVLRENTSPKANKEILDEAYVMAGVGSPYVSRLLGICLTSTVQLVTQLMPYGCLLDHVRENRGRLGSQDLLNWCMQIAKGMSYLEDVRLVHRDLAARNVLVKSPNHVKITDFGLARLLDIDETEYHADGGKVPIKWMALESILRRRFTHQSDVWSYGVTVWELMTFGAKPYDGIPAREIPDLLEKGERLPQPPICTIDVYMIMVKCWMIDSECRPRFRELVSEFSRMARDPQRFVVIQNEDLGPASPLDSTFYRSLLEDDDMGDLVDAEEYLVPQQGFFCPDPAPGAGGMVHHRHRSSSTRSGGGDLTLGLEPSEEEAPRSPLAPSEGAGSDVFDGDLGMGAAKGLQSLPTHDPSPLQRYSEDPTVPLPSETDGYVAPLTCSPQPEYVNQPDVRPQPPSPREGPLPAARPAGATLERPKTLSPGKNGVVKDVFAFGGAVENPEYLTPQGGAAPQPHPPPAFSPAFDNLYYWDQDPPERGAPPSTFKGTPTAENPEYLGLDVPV
Description: as §1

Epidermal growth factor receptor, sequence (P00533 whole entry): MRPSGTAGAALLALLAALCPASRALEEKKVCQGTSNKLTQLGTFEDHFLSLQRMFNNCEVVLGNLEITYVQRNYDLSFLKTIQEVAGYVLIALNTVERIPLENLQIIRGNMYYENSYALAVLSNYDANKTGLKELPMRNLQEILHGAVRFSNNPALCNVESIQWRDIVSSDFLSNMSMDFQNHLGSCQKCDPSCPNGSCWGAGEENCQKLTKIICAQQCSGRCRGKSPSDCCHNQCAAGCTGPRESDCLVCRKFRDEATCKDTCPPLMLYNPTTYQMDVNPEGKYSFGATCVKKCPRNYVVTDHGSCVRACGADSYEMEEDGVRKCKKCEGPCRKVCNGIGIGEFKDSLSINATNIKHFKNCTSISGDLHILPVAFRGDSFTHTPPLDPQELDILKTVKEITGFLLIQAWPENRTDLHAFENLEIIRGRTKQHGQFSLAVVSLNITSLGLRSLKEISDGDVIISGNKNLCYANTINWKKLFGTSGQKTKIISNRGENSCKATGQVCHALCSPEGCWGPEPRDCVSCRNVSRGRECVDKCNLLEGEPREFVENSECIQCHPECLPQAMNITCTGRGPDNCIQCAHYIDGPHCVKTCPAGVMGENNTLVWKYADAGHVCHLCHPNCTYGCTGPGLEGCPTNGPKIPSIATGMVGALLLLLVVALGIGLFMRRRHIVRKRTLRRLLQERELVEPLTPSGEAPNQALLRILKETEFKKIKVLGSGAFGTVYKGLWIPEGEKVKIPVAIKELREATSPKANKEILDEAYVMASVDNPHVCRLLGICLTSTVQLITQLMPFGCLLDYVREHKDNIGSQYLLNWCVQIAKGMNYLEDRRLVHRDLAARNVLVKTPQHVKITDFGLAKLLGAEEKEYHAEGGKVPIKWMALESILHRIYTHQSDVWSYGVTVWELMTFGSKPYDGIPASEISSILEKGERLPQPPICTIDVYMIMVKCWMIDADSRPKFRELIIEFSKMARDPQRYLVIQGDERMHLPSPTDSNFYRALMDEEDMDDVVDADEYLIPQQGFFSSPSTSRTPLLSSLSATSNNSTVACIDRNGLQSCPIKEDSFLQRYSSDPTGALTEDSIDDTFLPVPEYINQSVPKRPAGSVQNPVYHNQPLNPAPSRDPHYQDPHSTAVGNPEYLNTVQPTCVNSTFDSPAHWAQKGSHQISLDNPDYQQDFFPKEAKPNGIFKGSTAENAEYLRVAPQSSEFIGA

| Structure (SMILES) | pIC50 [1] | pIC50 [2] | pIC50 [3] |
| --- | --- | --- | --- |
| Nc1cnc(C#Cc2cc3c(Nc4ccc(OCc5cccc(F)c5)c(Cl)c4)ncnc3s2)cn1 [5-{2-[4-({3-chloro-4-[(3-fluorophenyl)methoxy]phenyl}amino)thieno[2,3-d]pyrimidin-6-yl]ethynyl}pyrazin-2-amine] | 6.43 | 5.87 | 7.28 |
| Nc1cnc(C#Cc2cc3ncnc(Nc4ccc(OCc5cccc(F)c5)c(Cl)c4)c3s2)cn1 [5-{2-[4-({3-chloro-4-[(3-fluorophenyl)methoxy]phenyl}amino)thieno[3,2-d]pyrimidin-6-yl]ethynyl}pyrazin-2-amine] | 7.33 | 6.60 | 8.00 |
| C[C@H](N)C#Cc1cc2c(Nc3ccc(OCc4cccc(F)c4)c(Cl)c3)ncnc2s1 [6-[(3S)-3-aminobut-1-yn-1-yl]-N-{3-chloro-4-[(3-fluorophenyl)methoxy]phenyl}thieno[2,3-d]pyrimidin-4-amine] | 7.16 | 6.20 | 7.36 |
| C[C@H](N)C#Cc1cc2ncnc(Nc3ccc(OCc4cccc(F)c4)c(Cl)c3)c2s1 [6-[(3S)-3-aminobut-1-yn-1-yl]-N-{3-chloro-4-[(3-fluorophenyl)methoxy]phenyl}thieno[3,2-d]pyrimidin-4-amine] | 7.19 | 6.39 | 7.57 |
| C#Cc1cc2c(Nc3ccc(OCc4cccc(F)c4)c(Cl)c3)ncnc2s1 [N-{3-chloro-4-[(3-fluorophenyl)methoxy]phenyl}-6-ethynylthieno[2,3-d]pyrimidin-4-amine] | 7.15 | 5.76 | 7.72 |
| C#Cc1cc2ncnc(Nc3ccc(OCc4cccc(F)c4)c(Cl)c3)c2s1 [N-{3-chloro-4-[(3-fluorophenyl)methoxy]phenyl}-6-ethynylthieno[3,2-d]pyrimidin-4-amine] | 7.62 | – | 7.92 |
| Fc1cccc(COc2ccc(Nc3ncnc4sc(C#C[C@H]5CCCN5)cc34)cc2Cl)c1 [N-{3-chloro-4-[(3-fluorophenyl)methoxy]phenyl}-6-{2-[(2R)-pyrrolidin-2-yl]ethynyl}thieno[2,3-d]pyrimidin-4-amine] | 6.96 | 5.64 | 7.27 |
| Fc1cccc(COc2ccc(Nc3ncnc4cc(C#C[C@H]5CCCN5)sc34)cc2Cl)c1 [N-{3-chloro-4-[(3-fluorophenyl)methoxy]phenyl}-6-{2-[(2R)-pyrrolidin-2-yl]ethynyl}thieno[3,2-d]pyrimidin-4-amine] | 8.15 | 7.18 | 7.89 |
